From the supplement of paper PMC11208160 come the findings set out here.

A short description of the data set: recombinant barcode read abundance after kanamycin selection (control-corrected) (log10(CPM+1)); higher = more efficient recombination; sequences stand for … in AGTGCAGAGAAAATCGGCCAGTTTTCTCTGCCTGCAGTCCGCATGCCGT…ATTTATGCAGCGGACTGCCTTTCTCCCAAAGTGATAAACCGGACAGTATCATGGACCGGTTTTCCCGGTAATCCGTATTTGCAAGGTTGGTTTCACT; site = the 11-nt target. On the procedure: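 Same pooled E. coli target screen (IS621 bridge recombinase, kanamycin selection, control-corrected CPM, mean of 2 biological replicates). Here the two core-binding nucleotides of the LTG and RTG of the bridge RNA target-binding loop are mutated. Target and donor CT cores are held constant, and the other 9 guide positions match the target. The target is read from the library oligo sequence. Molecule = full bridge RNA written as DNA: nt 1-80 from the library oligo, rest WT scaffold.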
Turning to “AAACACAGGTGGGTTCTAACCTGTTGCCTAG [AAACACACTAG_LTGcore_GG_RTGcore_CT] (site AAACACACTAG) (LTG core: GG, RTG core: CT)”, the “recombinant barcode read abundance (log10)” value came to 0.463. Regarding “AAACACAGGTGGGTTCTAACCTGTTGCCTCC [AAACACACTAG_LTGcore_GG_RTGcore_GG] (site AAACACACTAG) (LTG core: GG, RTG core: GG)”, the “recombinant barcode read abundance (log10)” value turned out to be 0.0137. With “AAACACATGTGGGTTCTAACCTGTTGCCTAG [AAACACACTAG_LTGcore_TG_RTGcore_CT] (site AAACACACTAG) (LTG core: TG, RTG core: CT)”, the “recombinant barcode read abundance (log10)” value was found to be 0.247.

Consider “AAACACATTTGGGTTCTAACCTGTTGCCTAA [AAACACACTAG_LTGcore_TT_RTGcore_TT] (site AAACACACTAG) (LTG core: TT, RTG core: TT)”, for which the “recombinant barcode read abundance (log10)” value is 0.889. Regarding “AAACAGTAATGGGTTCTAACCTGTTGCCTTT [AAACAGTCTAG_LTGcore_AA_RTGcore_AA] (site AAACAGTCTAG) (LTG core: AA, RTG core: AA)”, the “recombinant barcode read abundance (log10)” value amounted to 0.199. As for “AAACAGTCCTGGGTTCTAACCTGTTGCCTGG [AAACAGTCTAG_LTGcore_CC_RTGcore_CC] (site AAACAGTCTAG) (LTG core: CC, RTG core: CC)”, the “recombinant barcode read abundance (log10)” value came to 0.0864. Regarding “AAACAGTCTTGGGTTCTAACCTGTTGCCTAC [AAACAGTCTAG_LTGcore_CT_RTGcore_GT] (site AAACAGTCTAG) (LTG core: CT, RTG core: GT)”, the “recombinant barcode read abundance (log10)” value is 0.553. Regarding “AAACAGTCTTGGGTTCTAACCTGTTGCCTCG [AAACAGTCTAG_LTGcore_CT_RTGcore_CG] (site AAACAGTCTAG) (LTG core: CT, RTG core: CG)”, the “recombinant barcode read abundance (log10)” value is 1.3. For “AAACAGTCTTGGGTTCTAACCTGTTGCCTGT [AAACAGTCTAG_LTGcore_CT_RTGcore_AC] (site AAACAGTCTAG) (LTG core: CT, RTG core: AC)”, the “recombinant barcode read abundance (log10)” value was 1.66. As to “AAACAGTCTTGGGTTCTAACCTGTTGCCTTT [AAACAGTCTAG_LTGcore_CT_RTGcore_AA] (site AAACAGTCTAG) (LTG core: CT, RTG core: AA)”, the “recombinant barcode read abundance (log10)” value was determined as 1.32. With “AAACAGTGCTGGGTTCTAACCTGTTGCCTGC [AAACAGTCTAG_LTGcore_GC_RTGcore_GC] (site AAACAGTCTAG) (LTG core: GC, RTG core: GC)” the figure was 0.0997; with “AAACAGTGGTGGGTTCTAACCTGTTGCCTCC [AAACAGTCTAG_LTGcore_GG_RTGcore_GG] (site AAACAGTCTAG) (LTG core: GG, RTG core: GG)”, 0.0531. As for “AAACAGTGTTGGGTTCTAACCTGTTGCCTAC [AAACAGTCTAG_LTGcore_GT_RTGcore_GT] (site AAACAGTCTAG) (LTG core: GT, RTG core: GT)”, the figure is 0.0266; as for “AAACAGTGTTGGGTTCTAACCTGTTGCCTAG [AAACAGTCTAG_LTGcore_GT_RTGcore_CT] (site AAACAGTCTAG) (LTG core: GT, RTG core: CT)”, 0.0452; as for “AAACAGTTGTGGGTTCTAACCTGTTGCCTAG [AAACAGTCTAG_LTGcore_TG_RTGcore_CT] (site AAACAGTCTAG) (LTG core: TG, RTG core: CT)”, 0.029. As for “AAACAGTTTTGGGTTCTAACCTGTTGCCTAA [AAACAGTCTAG_LTGcore_TT_RTGcore_TT] (site AAACAGTCTAG) (LTG core: TT, RTG core: TT)”, the figure is 0.182; as for “AAACATGAGTGGGTTCTAACCTGTTGCCTAG [AAACATGCTAG_LTGcore_AG_RTGcore_CT] (site AAACATGCTAG) (LTG core: AG, RTG core: CT)”, 0.109; as for “AAACATGAGTGGGTTCTAACCTGTTGCCTCT [AAACATGCTAG_LTGcore_AG_RTGcore_AG] (site AAACATGCTAG) (LTG core: AG, RTG core: AG)”, 0.191.
